Laboratory results: US20060019971A1, “Treatment of cardiovascular disease with inhibitors of p38 kinase” (priority 2003, published 2006)

B1: CRP: purified human CRP (Calbiochem), stimulus applied at 10 μg/ml to HPBMCs (protein, UniProt P02741 19-224, looked up)
C-reactive protein: QTDMSRKAFVFPKESDTSYVSLKAPLTKPLKAFTVCLHFYTELSSTRGYSIFSYATKRQDNEILIFWSKDIGYSFTVGGSEILFEVPEVTVAPVHICTSWESASGIVEFWVDGKPRVRKSLKKGYTVGAEASIILGQEQDSFGGNFEGSQSLVGDIGNVNMWDFVLSPDEINTIYLGGPFSPNVLNWRALKYEVQGEVFTKPQLWP

What was measured:
p38 MAP kinase = target: T1, p38 MAP kinase (Homo sapiens, UniProt Q16539); test: p38 MAP kinase phosphorylation assay (similar to Kumar); type: biochemical; details: assay similar to the phosphorylation assay (Kumar)
T1 construct: expressed in transfected cells; kinase immunoprecipitated from lysates
T1 sequence (Q16539 whole entry): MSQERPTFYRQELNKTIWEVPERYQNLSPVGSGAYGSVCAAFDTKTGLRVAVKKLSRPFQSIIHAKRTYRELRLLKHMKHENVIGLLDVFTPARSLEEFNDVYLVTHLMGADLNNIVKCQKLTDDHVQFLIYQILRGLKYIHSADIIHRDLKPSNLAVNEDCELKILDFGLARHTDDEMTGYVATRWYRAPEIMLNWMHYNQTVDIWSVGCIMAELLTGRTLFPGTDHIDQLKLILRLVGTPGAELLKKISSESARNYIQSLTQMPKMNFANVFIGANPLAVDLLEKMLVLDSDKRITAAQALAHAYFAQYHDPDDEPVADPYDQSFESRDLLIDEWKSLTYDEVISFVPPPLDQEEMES
Description: Alternative assays involving in vitro analysis of potential inhibitors include those where cells (HeLa) transfected with DNA coding for relevant kinases can be activated with substances such as sorbitol, IL-1, TNF, or PMA (phorbol myristate acetate). After immunoprecipitation of cell lysates, equal aliquots of immune complexes of the kinases are pre-incubated for an adequate time with a specific concentration of the potential inhibitor followed by addition of kinase substrate buffer mix containing labeled ATP and GST-ATF2 or MBP. After incubation, kinase reactions are ceased by the addition of SDS loading buffer. Phosphorylated substrate is resolved through SDS-PAGE and visualized and quantitated in a phosphorimager. Both p38 regulation, in terms of phosphorylation, and IC50 values can be determined by quantitation. See, for example Kumar,S., McDonnell, P., Gum, R., Hand, A., Lee, J., and Young, P. (1997) Biochem. Biophys. Res. Commun. 235, 533-538.

ET-1 mRNA in HPBMCs = test: ET-1 gene expression in HPBMCs, real-time PCR; type: cell-based, human; details: 10 μg/ml CRP added to 10% FCS, HPBMCs, 6 hours
Description: 5×10^6 HPBMCs were plated in 6-well. After 1 hour medium was removed and cells were treated with vehicle or 1 μM P38 INHIBITOR in RPMI 1640 medium. After 1 hour cells were stimulated with 10% FCS only or 10 μg/ml CRP plus 10% FCS. After 6 hours RNA was extracted from the cells and ET-1 gene expression level was determined by real-time PCR as described in the Experimental section.
Cryopreserved human peripheral blood monocytes (HPBMCs, from Biowitker, Walkersvill, Md.) were thawed and washed twice in RPMI 1640. Cells were plated in tissue culture plates and incubated in 5% CO2 at 37 C. After 1 hr media were removed and cells were treated with various treatments. After 2 to 20 hours conditioned media and/or cell lysates were collected for the analyses of secreted cytokines, protein or mRNA expression. 10 μg/ml of purified human CRP (Calbiochem, San Diego, Calif.) was used in most of the treatments. In some experiments fetal calf serum (FCS from ATCC) was added to a final concentration of 10% together with CRP. In the examples provided herein, including those assessing the effects of p38 antagonism, cells were pre-treated with SD, a p38 small molecule inhibitor (Compound 162 in Table A) for 1 hour prior to CRP treatment as described above. In a parallel series of experiments, the effect of vehicle (DMSO) was tested. For TaqMan analyses of various gene expression cells were lysed in ice-cold RLT lysis buffer (Qiagen, Valencia, Calif.) and the lysates were kept in −80° C. until the analyses. […]
RNA was extracted from the cells using Qiagen RNA extraction kit according to the manufacturer's instruction. The expression of pro-inflammatory genes IL-1β, IL-6, IL-8, TNFα, COX-2, ET-1, TF were assessed by real-time PCR. […]
Real-time RT-PCR was performed in a two-step manner. cDNA synthesis and real-time detection were carried out in a PTC-100™ Thermal Cycler (MJ Research Inc, Waltham, Mass.) and an ABI Prism™ 7700 Sequence Detection System (Applied Biosystems, Foster City, Calif.), respectively. […] Relative quantitation of gene expression was performed using the relative standard curve method. […]

Molecule | p38 MAP kinase activity (p38 MAP kinase) | augmentation of ET-1 gene expression (ET-1 mRNA in HPBMCs)
COc1cc2c(cc1C(=O)N1CCC(Cc3ccc(F)cc3)CC1)c(C(=O)C(=O)O)cn2C [Compound 2] | exhibit p38 MAP kinase activity | –
COc1cc2c(cc1C(=O)N1CCC(Cc3ccc(F)cc3)CC1)c(C(=O)C(=O)N1CCN(C)CC1)cn2C [Compound 3] | exhibit p38 MAP kinase activity | –
COc1cc2c(cc1C(=O)N1C[C@H](C)N(Cc3ccc(F)cc3)C[C@@H]1C)c(C(=O)C(=O)N(C)C)cn2C [Compound 15] | exhibit p38 MAP kinase activity | –
COc1cc2c(cc1C(=O)N1CCC(=Cc3ccc(F)cc3)CC1)c(C(=O)C(=O)N(C)C)cn2C [Compound 67] | exhibit p38 MAP kinase activity | –
Cn1cc(C(=O)C(=O)N2CCCC2)c2cc(C(=O)N3CCC(Cc4ccc(F)cc4)CC3)c(Cl)cc21 [Compound 84] | exhibit p38 MAP kinase activity | –
COCn1cc(C(=O)C(=O)N(C)C)c2cc(C(=O)N3C[C@H](C)N(Cc4ccc(F)cc4)C[C@H]3C)c(OC)cc21 [Compound 92] | exhibit p38 MAP kinase activity | –
C[C@@H]1CN(Cc2ccc(F)cc2)[C@@H](C)CN1C(=O)c1cc2c(C(=O)C(=O)N3CCOCC3)cn(C)c2cc1Cl [Compound 96] | exhibit p38 MAP kinase activity | –
COc1cc2[nH]cc(C(=O)C(=O)N3CCOCC3)c2cc1C(=O)N1CCC(Cc2ccc(F)cc2)CC1 [Compound 141] | exhibit p38 MAP kinase activity | –
COc1cc2[nH]cc(C(=O)C(=O)N(C)C)c2cc1C(=O)N1CC(C)N(Cc2ccc(F)cc2)CC1C (centres unmarked) [Compound 154] | exhibit p38 MAP kinase activity | –
Cc1[nH]c2cc(Cl)c(C(=O)N3CCC(Cc4ccc(F)cc4)CC3)cc2c1C(=O)C(=O)N1CCN(C)CC1 [Compound 169] | exhibit p38 MAP kinase activity | –
B1 | – | 1.7 fold
